Measurements as given in ChEMBL document CHEMBL4177750, “Imidazopyrazinones (IPYs): Non-Quinolone Bacterial Topoisomerase Inhibitors Showing Partial Cross-Resistance with Quinolones” (J Med Chem, 2018).
≈ marks a conversion by molar mass, not a printed value. Calls of active or inactive are those of the source. No cut-off for these calls is given here.

Key:
Escherichia coli [1] = experiment: Antibacterial activity against tolC-deficient Escherichia coli K-12 MG1655 after 20 to 22 hrs; format: functional; conditions: K-12 substr. MG1655
Pseudomonas aeruginosa [2] = experiment: Antibacterial activity against Pseudomonas aeruginosa PAO750 harboring mexAB-oprM/mexCD-oprJ/mexEF-oprN/mexXY/opmH/mexJK/pscC deletion mutant after 20 to 22 hrs; format: functional
L5178Y [3] = experiment: Genotoxicity in mouse L5178Y cells after 23 hrs in absence of S9 fraction by micronucleus test; format: toxicity, cell-based
[4] = target: Muscarinic acetylcholine receptor M3 (Homo sapiens) (UniProt P20309); experiment: Inhibition of M3 receptor (unknown origin) at 10 uM relative to control
Chain of Muscarinic acetylcholine receptor M3 (Homo sapiens) (P20309 whole entry, looked up): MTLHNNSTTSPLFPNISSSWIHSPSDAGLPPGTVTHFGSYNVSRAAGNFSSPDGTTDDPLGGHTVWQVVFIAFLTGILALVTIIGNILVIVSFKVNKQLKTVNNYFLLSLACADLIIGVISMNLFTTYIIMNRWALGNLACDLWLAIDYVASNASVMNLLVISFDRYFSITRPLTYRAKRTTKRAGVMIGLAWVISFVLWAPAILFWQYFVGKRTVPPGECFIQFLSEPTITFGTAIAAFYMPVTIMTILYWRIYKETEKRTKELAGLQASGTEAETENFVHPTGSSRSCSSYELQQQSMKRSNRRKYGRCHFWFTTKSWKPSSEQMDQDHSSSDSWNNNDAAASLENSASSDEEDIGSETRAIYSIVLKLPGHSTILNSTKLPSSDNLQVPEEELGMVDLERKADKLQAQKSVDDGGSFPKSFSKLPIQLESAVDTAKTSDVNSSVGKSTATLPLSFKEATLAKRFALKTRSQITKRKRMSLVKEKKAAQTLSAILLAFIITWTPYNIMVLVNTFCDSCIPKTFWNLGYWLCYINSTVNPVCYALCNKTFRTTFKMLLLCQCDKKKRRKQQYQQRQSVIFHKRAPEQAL

Acinetobacter baumannii [5] = experiment: Antibacterial activity against Acinetobacter baumannii BM4454 after 20 to 22 hrs; format: functional
[6] = AUC (0 to last) in Swiss mouse plasma at 30 mg/kg, iv administered as single bolus dose by LC-MS/MS method; format: ADME, organism-based; set-up: dose 30 mg/kg, route intravenous, time 0 - last
[7] = Metabolic stability in mouse plasma at 1 uM after 4 hrs; format: ADME, cell-free; conditions: read-out: Stability
[8] = target: T1, Muscarinic acetylcholine receptor M1 (Homo sapiens) (UniProt P11229); experiment: Inhibition of M1 receptor (unknown origin) at 10 uM relative to control
T1 sequence (whole entry): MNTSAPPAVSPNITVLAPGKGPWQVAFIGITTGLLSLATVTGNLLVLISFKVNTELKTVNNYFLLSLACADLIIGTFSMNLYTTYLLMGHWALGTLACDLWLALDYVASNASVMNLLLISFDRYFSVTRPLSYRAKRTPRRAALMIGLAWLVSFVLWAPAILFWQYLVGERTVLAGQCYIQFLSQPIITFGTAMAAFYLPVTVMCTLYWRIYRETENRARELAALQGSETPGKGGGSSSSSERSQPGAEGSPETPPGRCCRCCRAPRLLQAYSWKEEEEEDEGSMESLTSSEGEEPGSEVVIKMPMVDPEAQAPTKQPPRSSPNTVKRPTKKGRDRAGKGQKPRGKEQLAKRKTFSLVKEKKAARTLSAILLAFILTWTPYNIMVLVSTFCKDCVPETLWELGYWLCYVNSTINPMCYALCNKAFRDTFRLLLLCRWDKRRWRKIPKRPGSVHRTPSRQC

L5178Y [9] = experiment: Genotoxicity in mouse L5178Y cells after 3 hrs in presence of S9 fraction by micronucleus test; format: toxicity, cell-based; conditions: s9, 3 h
Staphylococcus aureus [10] = experiment: Antibacterial activity against methicillin-resistant Staphylococcus aureus ATCC 33592 after 20 to 22 hrs in presence of 50% mouse serum; format: functional, organism-based
Cytochrome P450 3A4 [11] = target: T2, Cytochrome P450 3A4 (Homo sapiens, UniProt P08684); experiment: Inhibition of CYP3A4-mediated midazolam metabolism in human liver microsomes
T2 sequence (P08684 whole entry): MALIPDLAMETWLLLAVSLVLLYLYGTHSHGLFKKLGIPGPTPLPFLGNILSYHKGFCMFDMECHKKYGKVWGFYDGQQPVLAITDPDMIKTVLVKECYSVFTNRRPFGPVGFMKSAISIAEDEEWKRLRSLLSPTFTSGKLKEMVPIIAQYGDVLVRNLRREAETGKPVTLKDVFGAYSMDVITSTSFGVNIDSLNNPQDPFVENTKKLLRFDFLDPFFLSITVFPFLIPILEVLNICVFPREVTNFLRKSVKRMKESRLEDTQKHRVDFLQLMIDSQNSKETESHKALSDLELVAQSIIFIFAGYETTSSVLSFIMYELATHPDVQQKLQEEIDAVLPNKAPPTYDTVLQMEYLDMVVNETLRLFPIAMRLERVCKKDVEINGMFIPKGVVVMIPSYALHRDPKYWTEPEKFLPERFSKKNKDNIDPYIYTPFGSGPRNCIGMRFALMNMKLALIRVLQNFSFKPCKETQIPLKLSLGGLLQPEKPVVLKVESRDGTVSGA

Escherichia coli [12] = experiment: Antibacterial activity against Escherichia coli ATCC 35218 in Swiss mouse septicemia model assessed as decrease in bacterial burden in blood at 30 mg/kg, iv bid administered at 1 and 3 hrs post infection measured at 4 hrs relative to vehicle-treated control; format: functional
Acinetobacter baumannii [13] = experiment: Antibacterial activity against Acinetobacter baumannii BM4652 harboring adeABC/adeIJK deletion mutant after 20 to 22 hrs; format: functional
[14] = Drug uptake in Swiss mouse lung at 30 mg/kg, iv administered as single bolus dose by LC-MS/MS method; format: ADME, organism-based; conditions: in vivo
Mus musculus [15] = experiment: Time during which free lung concentration exceeds in vitro MIC for Escherichia coli ATCC 35218 in Swiss mouse at 30 mg/kg, iv administered as single bolus dose by LC-MS/MS method; format: ADME, organism-based; conditions: in vivo
[16] = Drug uptake in Swiss mouse liver at 30 mg/kg, iv administered as single bolus dose by LC-MS/MS method; format: ADME, organism-based; conditions: in vivo
Klebsiella pneumoniae [17] = experiment: Antibacterial activity against tolC-deficient Klebsiella pneumoniae 1161486a after 20 to 22 hrs; format: functional
Staphylococcus aureus [18] = experiment: Antibacterial activity against methicillin-resistant Staphylococcus aureus ATCC 33592 after 20 to 22 hrs; format: functional
[19] = Thermodynamic aqueous solubility of the compound at pH 7.4; conditions: aqueous solution
Escherichia coli [20] = experiment: Antibacterial activity against hyperpermeable Escherichia coli D22 harboring LpxC mutant after 20 to 22 hrs
[21] = Drug metabolism in rat liver microsomes at 5 uM after 20 mins in presence of NADPH; format: ADME, microsome; conditions: read-out: Drug metabolism
Pseudomonas aeruginosa [22] = experiment: Antibacterial activity against Pseudomonas aeruginosa PAO1 after 20 to 22 hrs; format: functional
[23] = Drug metabolism in human liver microsomes at 5 uM after 20 mins in presence of NADPH; format: ADME, microsome; conditions: read-out: Drug metabolism
Mus musculus [24] = experiment: Time during which free liver concentration exceeds in vitro MIC for Escherichia coli ATCC 35218 in Swiss mouse at 30 mg/kg, iv administered as single bolus dose by LC-MS/MS method; format: ADME, organism-based; conditions: in vivo
[25] = Metabolic stability in rat plasma at 1 uM after 4 hrs; format: ADME, cell-free; conditions: read-out: Stability
Escherichia coli [26] = experiment: Antibacterial activity against ESBL producing Escherichia coli ATCC 35218 after 20 to 22 hrs; format: functional
[27] = Protein binding in mouse plasma by equilibrium dialysis method; format: ADME, cell-free; conditions: read-out: PPB (converted)
Escherichia coli [28] = experiment: Antibacterial activity against Escherichia coli K-12 MG1655 after 20 to 22 hrs; conditions: K-12 substr. MG1655
Staphylococcus aureus [29] = experiment: Antibacterial activity against methicillin-resistant Staphylococcus aureus ATCC 33592 after 20 to 22 hrs in presence of 50% calf fetal serum; format: functional, organism-based
Escherichia coli [30] = experiment: Antibacterial activity against Escherichia coli ATCC 35218 in Swiss mouse septicemia model assessed as decrease in bacterial burden in blood at 15 mg/kg, iv bid administered at 1 and 3 hrs post infection measured at 4 hrs relative to vehicle-treated control; format: functional
Klebsiella pneumoniae [31] = experiment: Antibacterial activity against Klebsiella pneumoniae 1161486 after 20 to 22 hrs; format: functional
Cytochrome P450 3A4 [32] = target: T2, Cytochrome P450 3A4; experiment: Inhibition of CYP3A4-mediated testosterone metabolism in human liver microsomes
[33] = target: Voltage-gated inwardly rectifying potassium channel KCNH2 (Homo sapiens, UniProt Q12809); experiment: Inhibition of human ERG transfected in CHO cells by patch clamp method
Chain of Voltage-gated inwardly rectifying potassium channel KCNH2 (Q12809 whole entry): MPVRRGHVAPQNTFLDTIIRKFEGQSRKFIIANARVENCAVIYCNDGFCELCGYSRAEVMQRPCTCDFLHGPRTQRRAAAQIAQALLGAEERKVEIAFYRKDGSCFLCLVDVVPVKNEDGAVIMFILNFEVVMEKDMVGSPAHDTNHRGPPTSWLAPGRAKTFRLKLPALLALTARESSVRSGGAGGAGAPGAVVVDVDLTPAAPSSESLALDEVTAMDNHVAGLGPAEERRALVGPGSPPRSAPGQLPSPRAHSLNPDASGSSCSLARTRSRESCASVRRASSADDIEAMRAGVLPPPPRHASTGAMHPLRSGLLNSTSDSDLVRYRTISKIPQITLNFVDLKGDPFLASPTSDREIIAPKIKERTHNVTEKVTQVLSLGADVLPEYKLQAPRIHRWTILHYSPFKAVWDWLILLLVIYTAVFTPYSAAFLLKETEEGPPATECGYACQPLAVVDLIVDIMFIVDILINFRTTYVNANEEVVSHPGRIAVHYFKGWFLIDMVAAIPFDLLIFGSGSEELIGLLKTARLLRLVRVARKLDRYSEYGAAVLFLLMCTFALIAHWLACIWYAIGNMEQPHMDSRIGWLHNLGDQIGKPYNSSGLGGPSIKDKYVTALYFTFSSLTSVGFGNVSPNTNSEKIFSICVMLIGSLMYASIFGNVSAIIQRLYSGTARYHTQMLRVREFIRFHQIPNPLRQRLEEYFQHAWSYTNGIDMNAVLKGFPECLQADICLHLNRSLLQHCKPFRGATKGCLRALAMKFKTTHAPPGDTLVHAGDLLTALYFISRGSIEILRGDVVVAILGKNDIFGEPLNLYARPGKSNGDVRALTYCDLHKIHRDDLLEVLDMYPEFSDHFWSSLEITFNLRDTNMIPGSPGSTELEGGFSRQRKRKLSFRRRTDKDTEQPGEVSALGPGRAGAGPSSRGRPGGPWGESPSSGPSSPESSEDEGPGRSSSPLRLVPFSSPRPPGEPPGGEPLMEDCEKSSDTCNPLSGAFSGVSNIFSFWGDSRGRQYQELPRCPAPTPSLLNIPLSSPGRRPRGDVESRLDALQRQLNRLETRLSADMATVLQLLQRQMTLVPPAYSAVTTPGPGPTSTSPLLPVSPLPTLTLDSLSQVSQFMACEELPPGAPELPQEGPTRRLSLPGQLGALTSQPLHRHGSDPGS

Escherichia coli [34] = experiment: Antibacterial activity against Escherichia coli ATCC 35218 in Swiss mouse septicemia model assessed as mouse survival at 30 mg/kg, iv bid administered at 1 and 3 hrs post infection measured at 96 hrs relative to vehicle-treated control; format: functional; conditions: ATCC 35218, iv
[35] = Drug metabolism in mouse liver microsomes at 5 uM after 20 mins in presence of NADPH; format: ADME, microsome; conditions: read-out: Drug metabolism
[36] = Apparent permeability across human Caco2 cells; conditions: Caco-2
[37] = Unbound concentration in Swiss mouse plasma at 30 mg/kg, iv administered as single bolus dose measured at 5 mins by LC-MS/MS method; format: ADME, organism-based; conditions: in vivo
Mus musculus [38] = experiment: Time during which free kidney concentration exceeds in vitro MIC for Escherichia coli ATCC 35218 in Swiss mouse at 30 mg/kg, iv administered as single bolus dose by LC-MS/MS method; format: ADME, organism-based; conditions: in vivo
[39] = Half life in Swiss mouse plasma at 30 mg/kg, iv administered as single bolus dose by LC-MS/MS method; format: ADME, organism-based
[40] = Cytotoxicity against human HepG2 cells assessed as decrease in cell viability after 40 hrs by Celltiter Glo assay
Mus musculus [41] = experiment: Toxicity in Swiss mouse at 30 mg/kg, iv bid administered as bolus dose every 2 hrs measured daily for 5 days; format: organism-based; conditions: in vivo, 120 h
Escherichia coli [42] = experiment: Antibacterial activity against Escherichia coli ATCC 35218 in Swiss mouse septicemia model assessed as mouse survival at 15 mg/kg, iv bid administered at 1 and 3 hrs post infection measured at 96 hrs relative to vehicle-treated control; format: functional; conditions: ATCC 35218, iv
[43] = Drug uptake in Swiss mouse kidney at 30 mg/kg, iv administered as single bolus dose by LC-MS/MS method; format: ADME, organism-based; conditions: in vivo

N[C@H]1CCN(c2cc3c(cc2F)n2ncnc2c(=O)n3C2CC2)C1
MIC (Escherichia coli [1]): < 0.125 µg/mL | MIC (Pseudomonas aeruginosa [2]): 1 µg/mL (≈ 3.05 µM) | Activity (L5178Y [3]): Toxic | inhibition [4]: 50 to 60% | MIC (Acinetobacter baumannii [5]): > 64 µg/mL | AUC(0-t) [6]: 7200 ng·h/mL | remaining at 4 h, 1 µM [7]: 80 to 120% | inhibition [8]: 50 to 60% | Activity (L5178Y [9]): Toxic | Activity (Staphylococcus aureus [10]): Active | IC50 (Cytochrome P450 3A4 [11]): > 30 µM | Activity (Escherichia coli [12]): 3.2 deltalog10CFU/ml | MIC (Acinetobacter baumannii [13]): 4 µg/mL (≈ 12.2 µM) | Drug uptake [14]: Active | Time (Mus musculus [15]): 2 h | Drug uptake [16]: Active | MIC (Klebsiella pneumoniae [17]): 0.5 µg/mL (≈ 1.52 µM) | MIC (Staphylococcus aureus [18]): 4 µg/mL (≈ 12.2 µM) | solubility thermodynamic [19]: 926 µg/mL (≈ 2820 µM) | MIC (Escherichia coli [20]): 1 µg/mL (≈ 3.05 µM) | metabolised at 20 min, 5 µM [21]: 8% | MIC (Pseudomonas aeruginosa [22]): > 64 µg/mL | metabolised at 20 min, 5 µM [23]: 0% | Time (Mus musculus [24]): 2 h | remaining at 4 h, 1 µM [25]: 80 to 120% | MIC (Escherichia coli [26]): 2 µg/mL (≈ 6.09 µM) | fraction unbound [27]: 0.38 | MIC (Escherichia coli [28]): 4 µg/mL (≈ 12.2 µM) | Activity (Staphylococcus aureus [29]): Active | Activity (Escherichia coli [30]): 1.6 deltalog10CFU/ml | MIC (Klebsiella pneumoniae [31]): 32 µg/mL (≈ 97.5 µM) | IC50 (Cytochrome P450 3A4 [32]): > 30 µM | IC50 [33]: > 30 µM | survival at 30 mg/kg (Escherichia coli [34]): 30% | metabolised at 20 min, 5 µM [35]: 8% | Papp [36]: 3.2 ×10⁻⁶ cm/s | Cp(f) [37]: 2.5 µg/mL | Time (Mus musculus [38]): 2 h | half-life [39]: 60 min | CC50 at 40 h [40]: > 30 µM | Activity (Mus musculus [41]): Non-Toxic | survival at 15 mg/kg (Escherichia coli [42]): 0% | Drug uptake [43]: Active
